Reference: patent US20230372337A1, “Combination Therapy Comprising an AXL Inhibitor” (BERGENBIO ASA, priority 2020, published 2023)
Values joined by “and” are separate entries in the source; they are usually repeats but may differ in a detail not shown here. Equal values may be shown once.

Legend:
[1] = tested on: 4T1 mammary carcinoma cells; assay: Metastasis, tumor weight and spleen weight post sacrifice, 4T1 model (Example 1); type: in vivo, BALB/c mice; settings: for Lung macro metastasis: count per animal (A1-A15) after sacrifice, 10+ = massive lung metastasis; for Average spleen weight / Average tumor weight: post sacrifice, average of each group
Method: Spleens were weighed and inspected for macroscopic metastasis and cut in half along the long axis. Half of the spleen was snap frozen, with the other half fixed in 4% formalin for 24 hours at room temperature and stored in 70% ethanol at 4° C. until embedding in paraffin.
Livers were inspected for macroscopic metastasis and fixed in 4% formalin for 24 hours at room temperature and stored in 70% ethanol at 4° C. until embedding in paraffin.
Lungs were inspected for macroscopic metastasis and fixed in 4% formalin for 24 hours at room temperature and stored in 70% ethanol at 4° C. until embedding in paraffin.
Tumors were weighed and cut in half along the long axis, one half was snap frozen in liquid nitrogen in 2 cryotubes per tumor, while the other half was fixed in 4% formalin for 24 hours at room temperature and stored in 70% ethanol at 4° C. until embedding in paraffin.

[2] = tested on: type I IFN related genes (ISG); assay: RT2 Profiler PCR Array Mouse Type I Interferon Response on 4T1 tumors (Example 2); type: in vivo, Balb/c mice
From the text: Bemcentinib was given as a loading dose for 3 days (11-13 after tumor implantation) and then as a standard dose until sacrifice.
9 mice have been excluded of the study because of the absence of tumor on day 11. On day 11 post implantation half of the cages were placed in the bemcentinib treated group and the other half in the […]. The average tumor volume when bemcentinib treatment was initiated (day 11) was 54.99 mm^3. […] The tumor volumes when bemcentinib treatment was initiated and the day of randomization are recorded in table 8. The intra tumomoral injection of doxorubicin and sting agonists was adjusted to the tumor volume.
Doxorubicin is provided in a 2 mg/ml solution. As it is technically challenging to inject 50 ul liquid into tumors measuring <100 mm^3, the total dosing volume was calculated based on the following formula: V=50 ul×(TV/120). This is done to minimize variability due to leakage during intratumoral injection. For the 1 mg/kg dose (E,F) Doxorubicin was given at a concentration of 0.5 mg/ml, which corresponds to 1 mg/kg for a 25 g mouse with a tumor of 120 mm^3, and 1 mg/kg for a 20 g mouse with a tumor of 100 mm^3. For 3 mg/kg dose (G,H), a solution of 1.5 mg/ml was used and same volumes was injected. For the 6 mg/kg dose (I,J) the commercial solution of 2 mg/ml will be used and 75 ul was injected for tumor with a volume of 120 mm^3.
The same formula as for doxorubicin was used V=50 ul×(TV/120).
(§1) RNA was extracted from […] snap frozen tumors using the RNEasy Microarray Tissue Mini kit from Qiagen following the manufacturer's instructions. As tumors contained Doxorubicin and powderizing them could expose personnel to harmful substances, the RNA was extracted in a closed system using the GentleMACS dissociator and M Tubes. Purity and concentration of RNA was measured using Nanodrop. cDNA was synthesized from RNA using the RT^2 First Strand kit (Qiagen) according to the manufacturer's instructions. cDNA was mixed with RT^2 SYBR Green Mastermix (Qiagen) and loaded into RT Profiler™ PCR Array Mouse Type I Interferon Response or RT^2 Profiler™ PCR Array Mouse Epithelial to Mesenchymal Transition (EMT), analyzing the expression of 84 genes listed in Tables 9 and 10. The plates were analyzed using Light Cycler 480 (Roche) and data were analyzed using the Qiagen Data Analysis Centre and Graph Pad (Prism).
(§2) Quiagen RT^2 software was used to analyze all the samples from different groups. To be able to generate heatmaps and graph on fold change including error bars, the data have been analyzed manually with Graph Pad (Prism) when the Quiagen RT^2 software gave significant results between the different groups. For IFN type 1 response 1 mg/kg 48, 72 h and 3 mg/kg 48 h, were analyzed manually. For EMT, 1 mg/kg 48, 72 h, 3 mg/kg 72 h. When the data have been analyzed manually, the results are presented as histograms of mRNA fold changes. For the time points and doses analyzed by the software, the results are presented as tables.
GraphPadPrism was used to generate the heat maps, graphs with mRNA fold change, and to make the statistics. Multiple TTests, paired were performed on ΔΔ Ct values.
The expression of type I IFN related genes (ISG) was assessed in tumors collected 24, 48 and 72 hours after i.t. doxorubicin treatment. 3 groups were compared per timepoint: bemcentinib (bern), doxorubicin only (dox) and doxorubicin combined with bemcentinib (doxbern), the fold changes were compared with the control groups injected with PBS, and the fold change was 1 for the control groups.

EMT related genes = assay: RT2 Profiler PCR Array Mouse Epithelial to Mesenchymal Transition (EMT) on 4T1 tumors (Example 2); type: in vivo, Balb/c mice; settings: for Downregulated EMT genes (number): doxorubicin 1 mg/kg i.t., 72 hr timepoint; for EMT related genes significantly downregulated (number): doxorubicin 3 mg/kg i.t., 72 hours
Method: as §1, §2
EMT related gene expression in tumors was assessed by the RT^2 Profiler™ PCR Array for the 1 and 3 mg/kg doses at 48 and 72 hr timepoints. The highest dose and 24 hr timepoint samples were excluded based on the results outlined above.

Yumm 1.7 cells = assay: Metastasis, tumor weight and spleen weight, Yumm1.7 model (Example 3); type: in vivo, C57Bl6 mice; settings: average on the day of sacrifice
Method: Spleens were weighed and prepared for Cytof (cut into pieces of 2 mm and frozen in FBS 90%, DMSO 10% and stored at −80° C. prior to dissociation).
Tumors were weighed and cut in 3 along the long axis, one third was snap frozen in liquid nitrogen in 2 cryotubes per tumor, another third was prepared for Cytof (Cut into pieces of 2 mm and frozen in FBS 90%, DMSO 10% and stored at −80C prior to dissociation). The last piece was fixed in 4% formalin for 24 hours at room temperature and stored in 70% ethanol at 4° C. until embedding in paraffin.

Yumm1.7 cells = assay: qRTPCR of IFN related genes in Yumm1.7 cells in vitro (Example 4); type: cell-based, mouse
[3] = doxorubicin 1 mg/kg i.t., 24 hours after injection, 84 genes
[4] = Yumm1.7 cells, doxorubicin 24 hours
[5] = 24 hours after DMXAA i.t. treatment

SMILES | Average spleen weight [1] [g] | Average tumor weight [1] [g] | ISG significantly upregulated compared to control (number) [2, 3] | ISG significantly upregulated compared to control (number) ([2]; doxorubicin 1 mg/kg i.t., 48 h) | ISG significantly upregulated compared to control (number) ([2]; doxorubicin 3 mg/kg i.t., 48 h) | Downregulated EMT genes (number) (EMT related genes) | EMT related genes significantly downregulated (number) (EMT related genes) | Spleen weight (Yumm 1.7 cells) [g] | also measured
COc1cccc2c1C(=O)c1c(O)c3c(c(O)c1C2=O)C[C@@](O)(C(=O)CO)C[C@@H]3O[C@H]1C[C@H](N)[C@H](O)[C@H](C)O1 [Doxorubicin, doxorubicin] | 1.16 | 1.51 | no ISG | one | No | one | none | 0.17 | Lung macro metastasis ([1]; listed as Vehicle + Dox + Igg): 10+ (2×) and 6 and 3 and 0 (2×) and 4 (2×) and 5; Fold change of one upregulated ISG ([2]; doxorubicin 1 mg/kg i.t., 48 h): 3 fold; ISG significantly upregulated compared to control (number) ([2]; doxorubicin 3 mg/kg i.t., 24 h): one; ISG significantly upregulated compared to control (number) ([2]; doxorubicin 6 mg/kg i.t., 24 hours): 1; ISG significantly upregulated compared to control (number) ([2]; doxorubicin 6 mg/kg i.t., 48 hours): 8; ISG significantly upregulated compared to control (number) ([2]; doxorubicin 6 mg/kg i.t., 72 hours): 6; IFIT1 mRNA fold change (Yumm1.7 cells; [4]): 20 fold; OAS2 mRNA fold change (Yumm1.7 cells; [4]): 50 fold; RSAD2 mRNA fold change (Yumm1.7 cells; [4]): 20 fold; ISG significantly upregulated compared to control (number) (Yumm1.7 cells; Yumm1.7 cells, doxorubicin 24 hours, 21 ISG tested): 9
Nc1nc(Nc2ccc3c(c2)CC[C@@H](N2CCCC2)CC3)nn1-c1cc2c(nn1)-c1ccccc1CCC2 [Bemcentinib, bemcentinib] | 0.9333 | 1.556 | no ISG | none | No | one | none | 0.10 | Lung macro metastasis ([1]; listed as Bem + PBS + Igg): 6 and 10+ (2×) and 5 (3×) and 0 and 4 and 2 and 10; Fold change of upregulated ISG [2, 5]: around 2 fold; ISG significantly upregulated compared to control (number) [2, 5]: 3; Effect on the IFNB mediated response (Yumm1.7 cells; Yumm1.7 cells treated with IFNB): appeared to increase the IFNB mediated response, although not reaching significance
